{"source": "patent US7943340B2", "about": "“Fungal dipeptidyl peptidase IV (DPPIV) enzyme for reagent use” (priority 2003, dated 2011)", "molecules": {"B1": {"name": "AMPP: T. rubrum aminopeptidase P (SEQ ID NO: 24) (protein, listed as Trichophyton rubrum)", "chain": "MPPPPVDTTQRLAKLRELMAQNKVDVYIVPSEDSHQSEYIAPCDGRRAFISSFTGSAGCAIVSMSKAALSTDGRYFSQAAKQLDANWILLKRGVEGVPTWEEWTAEQAETRQGCGSDARKLSQTLKTTGGSLVGIDQNLIDAVWGDERPARPANQITVQPVERAGKSFEEKVEDLRKELTAKKRSAMVISSKFLYKWYLSLYTKSHADWCSIPYNPVFFSYAIVTPSVAELYVDESKLSPEARKHLEGKVVLKPYESIFQASKVLAESKASASSGSSGKFLLSNKASWSLSLALGGEQNVVEVRSPITDAKAIKNEVELEGFRKCHIRDGAALIEYFAWLENALIKEGAKLDEVDGADKLFEIRKKYDLFVGNSFDTISSTGANGATIHYKPEKSTCAIIDPKAMYLCDSGGQYLDGTTDTTRTLHFGEPTEFQKKAYALVLKGHISIDNAIFPKGTTGYAIDSFARQHLWKEGLDYLHGTGHGVGSFLNVHEGPMGIGSRAQYAEVPLSASNSLDIMKTATSAFVSRVSSMTAYSSFFILTASLDLVICKEVQTAHKFGDKPFLGFESITLVPFCQKLLDASLLTEAERKWVNDYHAKVWEKTSPFFEKDELTTAWLKRETQPI"}}, "key": {"[1]": {"test_system": "T. rubrum secreted proteolytic activity", "assay": "Inhibition of T. rubrum secreted proteolytic activity (resorufin-labeled casein)", "format": "biochemical, Trichophyton rubrum", "details": "resorufin-labeled casein as substrate", "protocol": "The proteolytic activity was measured using resorufin-labeled casein in phosphate buffer (20 mM; pH 7.4). The reaction mixture contained 0.02% substrate in a total volume of 0.5 ml. After incubation at 37° C., the undigested substrate was precipitated by trichloroacetic add (4% final concentration) and separated from the supernatant by centrifugation. The absorbance at 574 nm of the supernatant was measured after alkalinization by adding 500 μl Tris buffer (500 mM; pH 9.4). For practical purposes, one unit (U) of proteolytic activity was defined as that producing an absorbance of 0.001 per min.\nT. rubrum was grown at 30° C. in a medium containing 0.2% soy protein as a sole carbon and nitrogen source. After 14 days of growth, a concomitant clarification of the culture medium was noted and a substantial proteolytic activity (400 U ml^−1) detected using resorufin-labeled casein as substrate. This proteolytic activity was 15% and 85% inhibited by PMSF and ortho-phenanthroline. respectively, attesting that serine and metalloproteases were secreted by T. rubrum. […] In addition, a high activity on substrates such as Leu-AMC and Leu-pNA was detected in the T. rubrum culture supernatant."}, "[2]": {"molecular_target": "T1, pkLAP (microsomal LAP from porcine kidney) (Sus scrofa, UniProt P15145)", "T1 construct": "purchased Sigma; host or cells: porcine kidney", "T1 sequence (P15145 1-963)": "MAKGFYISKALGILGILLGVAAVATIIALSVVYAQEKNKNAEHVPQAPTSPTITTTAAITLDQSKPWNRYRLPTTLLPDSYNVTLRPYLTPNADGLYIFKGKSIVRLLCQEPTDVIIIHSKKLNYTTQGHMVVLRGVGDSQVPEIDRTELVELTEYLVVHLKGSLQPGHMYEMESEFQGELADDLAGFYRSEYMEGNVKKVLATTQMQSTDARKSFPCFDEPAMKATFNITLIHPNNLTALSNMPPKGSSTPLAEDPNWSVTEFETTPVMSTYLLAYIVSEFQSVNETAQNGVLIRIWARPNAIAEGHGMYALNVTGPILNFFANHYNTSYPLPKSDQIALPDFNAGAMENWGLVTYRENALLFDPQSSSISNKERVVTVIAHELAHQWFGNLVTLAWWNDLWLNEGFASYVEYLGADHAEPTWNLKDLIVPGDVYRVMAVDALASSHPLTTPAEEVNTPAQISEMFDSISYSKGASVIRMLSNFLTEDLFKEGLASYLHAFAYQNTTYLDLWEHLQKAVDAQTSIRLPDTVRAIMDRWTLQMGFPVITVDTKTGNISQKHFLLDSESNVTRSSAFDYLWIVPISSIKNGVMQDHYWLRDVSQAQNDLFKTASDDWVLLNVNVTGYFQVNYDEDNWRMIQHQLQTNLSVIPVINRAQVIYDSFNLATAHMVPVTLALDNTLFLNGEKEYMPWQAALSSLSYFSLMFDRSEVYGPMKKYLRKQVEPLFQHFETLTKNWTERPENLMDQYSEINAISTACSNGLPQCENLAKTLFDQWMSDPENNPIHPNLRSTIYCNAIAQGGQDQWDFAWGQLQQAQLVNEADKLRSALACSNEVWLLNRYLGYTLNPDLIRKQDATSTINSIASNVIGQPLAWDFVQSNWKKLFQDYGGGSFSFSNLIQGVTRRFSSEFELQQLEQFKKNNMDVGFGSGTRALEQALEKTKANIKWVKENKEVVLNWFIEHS", "assay": "Effect of chemical reagents (inhibitors, metallic cations) on LAP activity with Leu-AMC", "format": "biochemical", "details": "inhibitor 40 μM; Leu-MCA substrate", "protocol": "(§1) Inhibitors and metallic cations were pre-incubated with the enzymes for 15 min at 37° C. Then, Leu-AMC at a 5 mM final concentration was added. After further incubation for 60 min, enzyme activity was measured as described above. The inhibitors and their concentrations tested purified LAPs were: 500 μM amastatin (Bachem), 40 μM benzamidine (Sigma), 500 μM bestatin (Bachem), 5 mM/l mM EDTA (Sigma). 100 μM E-64 (L-trans-epoxysuccinyl-leu-4-guanidinobutylamide) (Bachem), 100 μM leupeptin (Sigma), 5 mM/1 mM ortho-phenanthroline (Sigma), 500 μM p-chloromercuribenzoic acid (Sigma), 100 μM pepstatin A (Sigma), 40 μM PMSF (Sigma), 20 μM TLCK (Roche Diagnostics), and 20 μM TPCK (Roche Diagnostics)."}, "fuLAP1": {"molecular_target": "fuLAP1 (Aspergillus fumigatus, UniProt Q5VJG6)", "sequence (Q5VJG6 15-388, looked up, natural form)": "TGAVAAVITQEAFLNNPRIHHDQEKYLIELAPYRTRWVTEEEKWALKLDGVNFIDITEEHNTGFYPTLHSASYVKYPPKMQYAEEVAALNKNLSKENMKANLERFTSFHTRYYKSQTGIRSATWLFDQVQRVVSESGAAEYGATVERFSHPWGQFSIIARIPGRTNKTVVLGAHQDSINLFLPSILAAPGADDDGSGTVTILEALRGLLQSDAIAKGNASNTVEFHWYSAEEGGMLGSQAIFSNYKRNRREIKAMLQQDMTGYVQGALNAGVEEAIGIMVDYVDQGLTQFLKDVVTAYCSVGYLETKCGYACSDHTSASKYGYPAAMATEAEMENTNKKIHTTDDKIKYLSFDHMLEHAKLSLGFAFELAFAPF", "format": "biochemical", "details": "inhibitor 40 μM; Leu-MCA substrate", "protocol": "as §1"}, "ruLAP2": {"molecular_target": "ruLAP2 (Trichophyton rubrum, UniProt Q5QHG6)", "sequence (Q5QHG6 22-495)": "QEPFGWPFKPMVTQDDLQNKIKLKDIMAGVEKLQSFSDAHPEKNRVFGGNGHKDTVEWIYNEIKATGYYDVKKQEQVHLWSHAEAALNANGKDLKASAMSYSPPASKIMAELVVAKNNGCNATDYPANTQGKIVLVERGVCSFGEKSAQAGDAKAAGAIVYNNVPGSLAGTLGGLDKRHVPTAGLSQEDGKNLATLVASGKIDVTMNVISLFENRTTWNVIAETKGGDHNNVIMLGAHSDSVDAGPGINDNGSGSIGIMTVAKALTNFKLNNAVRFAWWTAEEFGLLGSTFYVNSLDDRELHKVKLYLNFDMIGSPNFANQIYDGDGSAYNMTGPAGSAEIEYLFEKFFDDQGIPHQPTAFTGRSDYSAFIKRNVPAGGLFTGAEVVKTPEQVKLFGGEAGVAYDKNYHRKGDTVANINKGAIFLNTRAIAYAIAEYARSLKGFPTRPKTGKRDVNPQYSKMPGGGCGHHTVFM", "format": "biochemical", "details": "inhibitor 40 μM; Leu-MCA substrate", "protocol": "as §1"}, "[3]": {"test_system": "all the LAPs tested (ruLAP1, ruLAP2, fuLAP1, fuLAP2, pkLAP)", "format": "biochemical", "details": "Leu-AMC 5 mM; amastatin 500 μM; ortho-phenantroline 1 and 5 mM; others as", "protocol": "as §1"}, "ruLAP1": {"molecular_target": "ruLAP1 (Trichophyton rubrum, UniProt Q5QHG5)", "sequence (Q5QHG5 19-373)": "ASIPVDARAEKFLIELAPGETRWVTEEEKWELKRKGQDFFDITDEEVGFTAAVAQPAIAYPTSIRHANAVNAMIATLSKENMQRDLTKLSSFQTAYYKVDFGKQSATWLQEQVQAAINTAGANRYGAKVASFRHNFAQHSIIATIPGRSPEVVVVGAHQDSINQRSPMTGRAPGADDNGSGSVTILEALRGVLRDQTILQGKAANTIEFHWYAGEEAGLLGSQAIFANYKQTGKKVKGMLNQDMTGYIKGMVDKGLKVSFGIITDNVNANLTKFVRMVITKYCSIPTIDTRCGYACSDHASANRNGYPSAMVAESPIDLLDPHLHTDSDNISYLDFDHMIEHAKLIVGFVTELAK", "format": "biochemical", "details": "inhibitor 40 μM; Leu-MCA substrate", "protocol": "as §1"}, "fuLAP2": {"test_system": "fuLAP2", "format": "biochemical, Aspergillus fumigatus", "details": "inhibitor 40 μM; Leu-MCA substrate", "protocol": "as §1"}, "gliadin 33 mer": {"test_system": "gliadin 33 mer", "assay": "Digestion of gliadin 33 mer (RP-HPLC, ESI-MS)", "format": "biochemical, wheat", "details": "37° C., 1 mM CoCl2, pH7.2"}, "desMet-G-CSF": {"test_system": "desMet-G-CSF", "assay": "Digestion of desMet-G-CSF with DPPIV", "details": "overnight 37° C., E/S 1/20 (w:w)"}, "[4]": {"test_system": "gliadin 14 mer PQPQLPYPQPQLPY", "format": "biochemical, wheat", "details": "4 h, 37° C., 1 mM CoCl2, pH7.2"}, "[5]": {"assay": "Enzymatic activity of T. rubrum AMPP at various temperatures (FIG. 5)", "format": "biochemical", "from_the_text": "FIG. 5 is a graph of the enzymatic activity of T. rubrum AMPP at various temperatures."}, "[6]": {"assay": "Enzymatic activity of T. rubrum AMPP at various pH values (FIG. 4)", "format": "biochemical", "from_the_text": "FIG. 4 is a graph of the enzymatic activity of T. rubrum AMPP (aminopeptidase P) at various pH values. It appears that AMPP has activity over a broad range of pH values, from pH 6 to 11."}}}
{"molecule": "O=S(=O)(F)Cc1ccccc1", "note": "[PMSF]", "values": [{"measurement": "inhibition of proteolytic activity", "setting": "[1]", "value": 15, "unit": "%"}, {"measurement": "pkLAP hydrolytic activity, percentage of control without inhibitor", "setting": "[2]", "value": 58, "unit": "%"}, {"measurement": "fuLAP1 hydrolytic activity, percentage of control without inhibitor", "setting": "fuLAP1", "value": 156, "unit": "%"}, {"measurement": "ruLAP2 hydrolytic activity, percentage of control without inhibitor", "setting": "ruLAP2", "value": 79, "unit": "%"}, {"measurement": "effect of inhibitor on all the LAPs tested", "setting": "[3]", "value": "no clear inhibitory effects"}, {"measurement": "ruLAP1 hydrolytic activity, percentage of control without inhibitor", "setting": "ruLAP1", "value": 78, "unit": "%"}, {"measurement": "fuLAP2 hydrolytic activity, percentage of control without inhibitor", "setting": "fuLAP2", "value": 84, "unit": "%"}]}
{"molecule": "c1cnc2c(c1)ccc1cccnc12", "note": "[ortho-phenanthroline]", "values": [{"measurement": "inhibition of proteolytic activity", "setting": "[1]", "value": 85, "unit": "%"}, {"measurement": "effect of inhibitor on all the LAPs tested", "setting": "[3]", "value": "totally inhibited"}]}
{"molecule": "ruDPPIV: T. rubrum dipeptidylpeptidase IV, 775 amino acid residues (SEQ ID NO: 35)", "values": [{"measurement": "digestion of the 33 mer", "setting": "gliadin 33 mer", "value": "not a substrate"}, {"measurement": "cleavage of N-terminal dipeptide from desMet-G-CSF", "setting": "desMet-G-CSF", "value": "Traces of undigested material are still present"}, {"measurement": "digestion of the 14 mer", "setting": "[4]", "value": "not able to hydrolyse the peptide"}]}
{"molecule": "B1", "values": [{"measurement": "optimal temperature", "setting": "[5]", "value": 50, "unit": "C"}, {"measurement": "temperature range of activity", "setting": "[5]", "value": "25 to 60", "unit": "C"}, {"measurement": "pH range of activity", "setting": "[6]", "value": "6 to 11", "unit": "pH"}]}
